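48-hour exposure; five concentrations; linearly interpolated endpoints. At the TGI there is no net growth.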
Assays:
Assay in all cases: inhibition of tumour cell growth, NCI panel, 48 h
[1] = test system: 786-0 renal
[2] = test system: A498 renal
[3] = test system: A549 NSCLC
[4] = test system: ACHN renal
[5] = test system: BT-549 breast
[6] = test system: CAKI-1 renal
[7] = test system: CCRF-CEM leukemia
[8] = test system: DU-145 prostate
[9] = test system: EKVX NSCLC
[10] = test system: HCC-2998 colon
[11] = test system: HCT-116 colon
[12] = test system: HCT-15 colon
[13] = test system: HOP-62 NSCLC
[14] = test system: HOP-92 NSCLC
[15] = test system: HS 578T breast
[16] = test system: HT29 colon
[17] = test system: IGROV1 ovarian
[18] = test system: KM12 colon
[19] = test system: LOX IMVI melanoma
[20] = test system: M14 melanoma
[21] = test system: MALME-3M melanoma
[22] = test system: MCF7 breast
[23] = test system: MDA-MB-231 breast
[24] = test system: MDA-MB-435
[25] = test system: MDA-N
[26] = test system: NCI-H226 lung
[27] = test system: NCI-H23 lung
[28] = test system: NCI-H460 lung
[29] = test system: NCI-H522 lung
[30] = test system: NCI/ADR-RES ovarian
[31] = test system: OVCAR-3 ovarian
[32] = test system: OVCAR-4 ovarian
[33] = test system: OVCAR-5 ovarian
[34] = test system: OVCAR-8 ovarian
[35] = test system: PC-3 prostate
[36] = test system: RPMI-8226 leukemia
[37] = test system: RXF 393 renal
[38] = test system: SF-268 CNS
[39] = test system: SF-295 CNS
[40] = test system: SF-539 CNS
[41] = test system: SK-MEL-2 melanoma
[42] = test system: SK-MEL-28 melanoma
[43] = test system: SK-OV-3 ovarian
[44] = test system: SN12C renal
[45] = test system: SNB-19 CNS
[46] = test system: SNB-75 CNS
[47] = test system: SW-620 colon
[48] = test system: TK-10 renal
[49] = test system: U251 CNS
[50] = test system: UACC-257 melanoma
[51] = test system: UACC-62 melanoma
[52] = test system: UO-31 renal
[53] = test system: COLO 205 colon
[54] = test system: HL-60(TB) leukemia
[55] = test system: K-562 leukemia
[56] = test system: MOLT-4 leukemia
[57] = test system: SK-MEL-5 melanoma
[58] = test system: SR leukemia

## c1ccc2cc(CNCCCCNCCCNCc3ccc4ccccc4c3)ccc2c1
[1]
  TGI: 323 nM
[2]
  TGI: 4.42 µM
[3]
  TGI: 4.25 µM
[4]
  TGI: 2920 nM
[5]
  TGI: 3.37 µM
[6]
  TGI: 3.31 µM
[7]
  TGI: > 100 µM
[8]
  TGI: 2530 nM
[9]
  TGI: 3.05 µM
[10]
  TGI: 944 nM
[11]
  TGI: 318 nM
[12]
  TGI: 1580 nM
[13]
  TGI: 3.31 µM
[14]
  TGI: 3.05 µM
[15]
  TGI: 1260 nM
[16]
  TGI: 538 nM
[17]
  TGI: 1690 nM
[18]
  TGI: 970 nM
[19]
  TGI: 358 nM
[20]
  TGI: 3.69 µM
[21]
  TGI: 3.28 µM
[22]
  TGI: 3.06 µM
[23]
  TGI: 3.95 µM
[24]
  TGI: 3.1 µM
[25]
  TGI: 2540 nM
[26]
  TGI: 2780 nM
[27]
  TGI: 3.43 µM
[28]
  TGI: 338 nM
[29]
  TGI: 2780 nM
[30]
  TGI: 3.47 µM
[31]
  TGI: 3.52 µM
[32]
  TGI: 3.08 µM
[33]
  TGI: 3.61 µM
[34]
  TGI: 3.2 µM
[35]
  TGI: 3.3 µM
[36]
  TGI: 712 nM
[37]
  TGI: 3.16 µM
[38]
  TGI: 2830 nM
[39]
  TGI: 2960 nM
[40]
  TGI: 3.47 µM
[41]
  TGI: 4.16 µM
[42]
  TGI: 3.34 µM
[43]
  TGI: 3.48 µM
[44]
  TGI: 879 nM
[45]
  TGI: 2800 nM
[46]
  TGI: 2950 nM
[47]
  TGI: 915 nM
[48]
  TGI: 3.39 µM
[49]
  TGI: 1250 nM
[50]
  TGI: 3.55 µM
[51]
  TGI: 3.52 µM
[52]
  TGI: 2830 nM

## Cc1cccc2c1c(=O)c1c(O)cc3c(c1n2C)C=CC(C)(C)O3
[1]
  TGI: > 100000 nM
[2]
  TGI: > 100 µM
[3]
  TGI: > 100 µM
[4]
  TGI: > 100000 nM
[5]
  TGI: > 100 µM
[6]
  TGI: > 100 µM
[7]
  TGI: > 100 µM
[53]
  TGI: > 100 µM
[8]
  TGI: > 100000 nM
[9]
  TGI: > 100 µM
[10]
  TGI: > 100000 nM
[11]
  TGI: > 100000 nM
[12]
  TGI: > 100000 nM
[54]
  TGI: > 100 µM
[13]
  TGI: > 100 µM
[14]
  TGI: > 100 µM
[15]
  TGI: > 100000 nM
[16]
  TGI: > 100000 nM
[17]
  TGI: > 100000 nM
[55]
  TGI: > 100 µM
[18]
  TGI: > 100000 nM
[19]
  TGI: > 100000 nM
[20]
  TGI: > 100 µM
[21]
  TGI: > 100 µM
[22]
  TGI: > 100 µM
[23]
  TGI: > 100 µM
[24]
  TGI: > 100 µM
[25]
  TGI: > 100000 nM
[56]
  TGI: > 100 µM
[26]
  TGI: > 100000 nM
[27]
  TGI: > 100 µM
[28]
  TGI: > 100000 nM
[29]
  TGI: > 100000 nM
[30]
  TGI: > 100 µM
[31]
  TGI: > 100 µM
[32]
  TGI: > 100 µM
[33]
  TGI: > 100 µM
[34]
  TGI: > 100 µM
[35]
  TGI: > 100 µM
[36]
  TGI: > 100000 nM
[37]
  TGI: > 100 µM
[38]
  TGI: > 100000 nM
[39]
  TGI: > 100000 nM
[40]
  TGI: > 100 µM
[41]
  TGI: > 100 µM
[42]
  TGI: > 100 µM
[57]
  TGI: > 100 µM
[43]
  TGI: > 100 µM
[44]
  TGI: > 100000 nM
[45]
  TGI: > 100000 nM
[46]
  TGI: > 100000 nM
[58]
  TGI: > 100 µM
[47]
  TGI: > 100000 nM
[48]
  TGI: > 100 µM
[49]
  TGI: > 100000 nM
[50]
  TGI: > 100 µM
[51]
  TGI: > 100 µM

Source: PubChem BioAssay (NCI)
